Assay results taken from patent publication US7943139B2, “Methods of generating a humoral immune response against human immunodeficiency virus (HIV) comprising administering Nef apoptotic motif-containing polypeptide-conjugates” (priority 2004, dated 2011).
Where no end group is shown, it is not given here.

Experiments:
[1] = system: Jurkat cell cultures; experiment: Nef peptide apoptosis screen (TUNEL); format: cell-based; conditions: 24 hours; for apoptosis induced by Nef 20 mer peptides: 10 ng/ml
Protocol: Apoptosis generates DNA free ends which can be labeled in situ using terminal deoxynucleotidyl-transferase (TdT), incorporating an exogenously added labeled nucleotide to the DNA strand. This label can then be visualized directly by fluorescence or indirectly using anti-FITC-peroxidase, and a calorimetric assay. Cells on coverslips were washed with PBS, and fixed for 30 minutes at RT with 4% paraformaldehyde, in PBS, pH 7.4. They were then washed with PBS, and permeabilized with 0.1% Triton X-100 for 10 minutes at room temperature (RT). The slides were rinsed twice with PBS, and air dried for 2 minutes. Then, we followed precisely the manufacturers procedure for TUNEL staining the slides (manufacturer's procedure for the In Situ Cell Death Detection Kit, AP; Boehringer Mannheim, Indianapolis, Ind.). Total cell counts were determined by counterstaining fixed cultures with 20 μg/ml of Hoechst 33258. All specimens were observed by epifluorescence on a computer-controlled microscope system based on a Zeiss Axioskop microscope (Carl Zeiss, Thornwood, N.Y.), and the images were obtained and examined using a charged coupled device (CCD) camera, MagnaFire, model S99806 (Olympus American, Melville, N.Y.). Images were examined using Image-Pro Plus 4.1 for Windows (Media Cybernetics, Silver Springs, Md.) software.
Nef peptides retain much of the binding and signaling activity of the full molecule. A set of 20 mer peptides with 10 aa overlaps, spanning the Nef protein (205 aa), were obtained from the AIDS Reagent Program. Jurkat cell cultures were exposed to each of the Nef peptides at 10 ng/ml for 24 hours, and screened for apoptosis. One peak of apoptosis was observed spanning peptide aa31-50 to […], peaking at aa41-60 and aa51-70. […] Two regions of the Nef protein that induce apoptosis were identified; (1) a major apoptotic peak centering on aa50-60 (motif 1); (2) a minor peak centering on aa170-180 (motif 2). (aa sequence from HIV-1B clade NL403, Ass. No. AF070521) To determine the specificity of the apoptotic motifs, two 11 mer peptides spanning motif 1, were made, one with the correctly ordered sequence (Nef Motif 1-[…]) (Seq. ID No. 17), and the other with the correct amino acids scrambled in random order (Nef scMotif 1-[…]) (Seq. ID No. 18). Jurkat cell cultures were exposed to each of the two peptides at 8 ng/ml for 24 hours, and screened for apoptosis by TUNEL assay. Nef Motif 1 peptide induced 82% of the apoptosis observed using the full Nef protein. […] Thus, (a) Nef aa50-60 is sufficient to bind and induce an apoptotic signal; (b) induction of apoptosis is primary sequence specific. In some of the studies disclosed herein the Nef Motif 1 having an extra acid, namely […] (Seq. ID No. 19) was administered. In this report, Seq. ID No. 17 and Seq. ID No. 19 are both referred to as M-1 or Nef Motif-1 peptide.

[2] = system: thymus; experiment: Mouse thymus apoptosis after ip peptide for one month; format: in vivo, mice; conditions: ip injection for one month
Protocol: Nef motif 1 was administered to mice for one month by ip injection with either Nef motif 1 (Seq. ID No. 19), the 11 mer sequence or the scrambled apoptotic sequence Seq. ID No. 18. […] This provides further indication of the ability of the Nef protein to inhibit immune response related to CD4+ peripheral blood lymphocytes.

[3] = target: T1, CXCR4 receptor (Homo sapiens, UniProt P61073); experiment: Fluorescent binding assay with Flc labeled M1 peptide on transfected MDA-MB-468 cells
T1 construct: transiently transfected with a CXCR4 cDNA clone; expressed in transfected cells; host or cells: MDA-MB-468 (human breast tumour line, lacks endogenous CXCR4), transient transfection
Protocol: Specific physical binding to CXCR4 was assayed. The above transfection experiment (MDA-MB-468 cultures either untransfected, or transiently transfected with a CXCR4 cDNA clone, empty vector, or CCR5 cDNA clone) was assayed in the fluorescent binding assay with the Flc labeled M1 peptide.

[4] = system: peripheral lymphocytes; experiment: KLH-M1 pre-immunization and Nef peptide challenge: PBL depletion and humoral response; format: in vivo, mice
Protocol: Nef Motif 1 peptides linked to keyhole limpet […] (KLH) were administered to 9 mice. Subsequently, the pre-immunized mice and the naive mice were either unchallenged or challenged with Nef peptide for a month. The mice were sacrificed and the PBLs collected.

T1 sequence (P61073 whole entry): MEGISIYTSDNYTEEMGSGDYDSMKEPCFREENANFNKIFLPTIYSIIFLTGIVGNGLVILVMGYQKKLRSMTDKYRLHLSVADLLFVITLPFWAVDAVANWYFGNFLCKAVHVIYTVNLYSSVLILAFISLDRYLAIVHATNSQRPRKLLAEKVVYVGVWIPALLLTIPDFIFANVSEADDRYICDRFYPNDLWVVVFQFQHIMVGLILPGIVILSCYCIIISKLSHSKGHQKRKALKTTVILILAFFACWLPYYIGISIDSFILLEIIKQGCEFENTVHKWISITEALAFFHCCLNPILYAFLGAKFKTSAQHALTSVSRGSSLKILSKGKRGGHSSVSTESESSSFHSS

ALAETCQNAWA [Nef scMotif 1, Motif 1 amino acids scrambled in random order, reference compound]
apoptosis (TUNEL) ([1]; 8 ng/ml, compared with untreated control): only background levels of apoptosis
apoptosis in the thymus [2]: No apoptosis

Flc-M1 peptide: Flc labeled M1 peptide used in the fluorescent binding assay (NAACAWLEAQ; also: Flc label, place not given here)
binding of the Flc-M1 peptide ([3]; MDA-MB-468 cells transiently transfected with CCR5 cDNA): refractory to binding
binding of the Flc-M1 peptide ([3]; MDA-MB-468 cells transiently transfected with empty vector): refractory to binding
binding of the Flc-M1 peptide ([3]; MDA-MB-468 cells transiently transfected with the CXCR4 clone): significant binding
binding of the Flc-M1 peptide ([3]; untransfected MDA-MB-468 cells): refractory to binding

NAACAWLEAQ [Nef Motif 1, Peptide spanning apoptotic motif 1 (aa50-60) of HIV-1 Nef]
apoptosis relative to that observed using the full Nef protein ([1]; 8 ng/ml, TUNEL): 82%
peripheral lymphocyte depletion ([4]; mice challenged with Nef peptide for a month, PBLs collected): induced peripheral lymphocyte depletion
protective humoral response against the Nef epitope ([4]; mice, naive or pre-immunized): did not stimulate a resultant protective humoral response

TNAACAWLEAQ [Nef motif 1 (Seq. ID No. 19)]
apoptosis in the thymus [2]: Significant apoptosis

aa41-60: Nef 20 mer overlapping peptide, residues 41-60, AIDS Reagent Program (GAITSSNTAATNAACAWLEA; UniProt P04601 41-60, looked up, fragment)
apoptosis induced by Nef 20 mer peptides [1]: peaking

aa51-70: Nef 20 mer overlapping peptide, residues 51-70, AIDS Reagent Program
apoptosis induced by Nef 20 mer peptides [1]: peaking

aa161-180: Nef 20 mer overlapping peptide, residues 161-180, AIDS Reagent Program (NTSLLHPVSLHGMDDPEREV; UniProt P04601 161-180, looked up, fragment)
apoptosis induced by Nef 20 mer peptides [1]: second, smaller apoptotic peak

aa171-190: Nef 20 mer overlapping peptide, residues 171-190, AIDS Reagent Program (HGMDDPEREVLEWRFDSRLA; UniProt P04601 171-190, looked up, fragment)
apoptosis induced by Nef 20 mer peptides [1]: second, smaller apoptotic peak
